Data on 9 cell lines can be found in the supplement of paper PMC10307832.

Common to all, as to experiment: relative viability (nuclei count vs DMSO), 5 days (fraction); higher = more cells survive
Compound in experiment [1]: O=c1[nH]cc(F)c(=O)[nH]1 [5-Fluorouracil] + Cc1nc(Nc2ncc(C(=O)Nc3c(C)cccc3Cl)s2)cc(N2CCN(CCO)CC2)n1 [Dasatinib] (partner 0.075 µM)
In a few lines: (§1)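 Lung cancer cell lines, seeded in 1536-well plates, were treated the following day by pin tool with a single drug or with five library-drug doses (not always all listed) in √10 steps on top of a fixed anchor-drug dose. Cells were fixed and nuclei stained in one step after 5 days, and nuclei were counted. Relative viability is the nuclei count for treated wells divided by that for vehicle wells, reported as medians of duplicate plates.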

Compound in experiment [2]: O=c1[nH]cc(F)c(=O)[nH]1 [5-Fluorouracil] + CC1(C)CCC(c2ccc(Cl)cc2)=C(CN2CCN(c3ccc(C(=O)NS(=O)(=O)c4ccc(N[C@H](CCN5CCOCC5)CSc5ccccc5)c(S(=O)(=O)C(F)(F)F)c4)cc3)CC2)C1 [Navitoclax] (partner 0.5 µM)
In short, it runs like this:
as §1

Compound in experiment [3]: O=c1[nH]cc(F)c(=O)[nH]1 [5-Fluorouracil] + COc1cc2c(Oc3ccc(NC(=O)C4(C(=O)Nc5ccc(F)cc5)CC4)cc3F)ccnc2cc1OCCCN1CCOCC1 [Foretinib] (partner 0.25 µM)
In a few lines:
as §1

Compound in experiment [4]: O=c1[nH]cc(F)c(=O)[nH]1 [5-Fluorouracil] + Nc1nc2[nH]cc(CCc3ccc(C(=O)N[C@@H](CCC(=O)O)C(=O)O)cc3)c2c(=O)[nH]1 [Pemetrexed] (partner 0.2 µM)
In short, it runs like this: as §1

On to NCI-H727, for which the relative viability in experiment [1] (first compound 0.02 µM) came to 0.38; in experiment [1] (first compound 0.2 µM), 0.395; in experiment [1] (first compound 0.6325 µM) it was 0.378; in experiment [1] (first compound 2 µM), 0.375; in experiment [2] (first compound 0.02 µM), 0.369; in experiment [2] (first compound 0.2 µM), 0.41. For the same cell line, the relative viability came to 0.527 in experiment [2] (first compound 0.6325 µM); 0.315 in experiment [2] (first compound 2 µM); 0.791 in experiment [3] (first compound 0.02 µM); 0.79 in experiment [3] (first compound 0.2 µM); 0.903 in experiment [3] (first compound 0.6325 µM); 0.656 in experiment [3] (first compound 2 µM).
For NCI-H1299, the relative viability is 1.07 in experiment [2] (first compound 0.02 µM); 1.1 in experiment [2] (first compound 0.2 µM); 1.06 in experiment [2] (first compound 0.6325 µM); 0.895 in experiment [2] (first compound 2 µM); 1.14 in experiment [3] (first compound 0.02 µM); 1.12 in experiment [3] (first compound 0.2 µM). Besides, the relative viability in experiment [3] (first compound 0.6325 µM) is 1.08; in experiment [3] (first compound 2 µM), 0.908.
Take NCI-H1563: the relative viability came to 0.396 in experiment [1] (first compound 0.02 µM); 0.517 in experiment [1] (first compound 0.2 µM); 0.423 in experiment [1] (first compound 0.6325 µM); 0.483 in experiment [1] (first compound 2 µM); 0.711 in experiment [4] (first compound 0.02 µM); 0.924 in experiment [4] (first compound 0.2 µM). Further, the relative viability was 0.786 in experiment [4] (first compound 0.6325 µM); 0.732 in experiment [4] (first compound 2 µM); 0.927 in experiment [3] (first compound 0.02 µM); 0.909 in experiment [3] (first compound 0.2 µM); 0.862 in experiment [3] (first compound 0.6325 µM); 0.761 in experiment [3] (first compound 2 µM).
For the cell line NCI-H1623, the relative viability worked out at 0.412 in experiment [1] (first compound 0.02 µM); 0.64 in experiment [1] (first compound 0.2 µM); 0.256 in experiment [1] (first compound 0.6325 µM); 0.232 in experiment [1] (first compound 2 µM); 0.567 in experiment [3] (first compound 0.02 µM); 0.35 in experiment [3] (first compound 0.2 µM). Also, the relative viability in experiment [3] (first compound 0.6325 µM) was determined as 0.306; in experiment [3] (first compound 2 µM), 0.259.
Take NCI-H1648: the relative viability is 0.816 in experiment [4] (first compound 0.02 µM), 0.864 in experiment [4] (first compound 0.2 µM), 0.572 in experiment [4] (first compound 0.6325 µM) and 0.332 in experiment [4] (first compound 2 µM).
As to NCI-H1703, the relative viability in experiment [2] (first compound 0.02 µM) amounted to 1.32; in experiment [2] (first compound 0.2 µM), 1.08; in experiment [2] (first compound 0.6325 µM) it was 0.817; in experiment [2] (first compound 2 µM), 0.61; in experiment [3] (first compound 0.02 µM), 0.341; in experiment [3] (first compound 0.2 µM), 0.383. Also, the relative viability in experiment [3] (first compound 0.6325 µM) came to 0.341; in experiment [3] (first compound 2 µM) it was 0.348.
For NCI-H1792, the relative viability in experiment [1] (first compound 0.02 µM) was found to be 0.929; in experiment [1] (first compound 0.2 µM), 0.714; in experiment [1] (first compound 0.6325 µM) it was 0.277; in experiment [1] (first compound 2 µM) it was 0.196; in experiment [2] (first compound 0.02 µM) it was 0.64; in experiment [2] (first compound 0.2 µM), 0.591. For the same cell line, the relative viability in experiment [2] (first compound 0.6325 µM) was determined as 0.131; in experiment [2] (first compound 2 µM), 0.118; in experiment [4] (first compound 0.02 µM), 0.948; in experiment [4] (first compound 0.2 µM) it was 0.569; in experiment [4] (first compound 0.6325 µM), 0.215; in experiment [4] (first compound 2 µM), 0.191.
As to NCI-H2342, the relative viability in experiment [1] (first compound 0.02 µM) is 0.305; in experiment [1] (first compound 0.2 µM) it was 0.343; in experiment [1] (first compound 0.6325 µM) it was 0.301; in experiment [1] (first compound 2 µM), 0.293; in experiment [4] (first compound 0.02 µM) it was 0.744; in experiment [4] (first compound 0.2 µM) it was 0.84. Moreover, the relative viability was determined as 0.776 in experiment [4] (first compound 0.6325 µM); 0.725 in experiment [4] (first compound 2 µM); 0.961 in experiment [3] (first compound 0.02 µM); 1 in experiment [3] (first compound 0.2 µM); 0.885 in experiment [3] (first compound 0.6325 µM); 0.786 in experiment [3] (first compound 2 µM).
As to SW 900, the relative viability in experiment [1] (first compound 0.02 µM) stood at 0.507; in experiment [1] (first compound 0.2 µM) it was 0.539; in experiment [1] (first compound 0.6325 µM) it was 0.548; in experiment [1] (first compound 2 µM), 0.577; in experiment [4] (first compound 0.02 µM), 0.468; in experiment [4] (first compound 0.2 µM), 0.491. In addition, the relative viability in experiment [4] (first compound 0.6325 µM) was determined as 0.518; in experiment [4] (first compound 2 µM), 0.385; in experiment [3] (first compound 0.02 µM) it was 0.629; in experiment [3] (first compound 0.2 µM) it was 0.799; in experiment [3] (first compound 0.6325 µM), 0.729; in experiment [3] (first compound 2 µM), 0.569.
